Common to all, as to assay type: cell-based
Assay [1] addresses T1, Glutamate NMDA receptor; Grin1/Grin2a (Rattus norvegicus, UniProt P35439+Q00959). The assay can be described thus: Inhibition of recombinant rat GluN1/GluN2A NMDA receptor expressed in xenopus laevis oocytes in presence of glycine and L-glutamate by two-electrode voltage-clamp method.
Assay [2] concerns the target T2, Glutamate NMDA receptor; Grin1/Grin2c (Rattus norvegicus, UniProt P35439+Q00961). The assay can be described thus: Inhibition of recombinant rat GluN1/GluN2C NMDA receptor expressed in xenopus laevis oocytes in presence of glycine and L-glutamate by two-electrode voltage-clamp method. A general note: Two-electrode voltage clamp holds a large cell at a set potential and records current.

For assay [3], the target named is Glutamate NMDA receptor; Grin1/Grin2b (Rattus norvegicus, UniProt P35439+Q00960). In words: Inhibition of recombinant rat GluN1/GluN2B NMDA receptor expressed in xenopus laevis oocytes in presence of glycine and L-glutamate by two-electrode voltage-clamp method.
Assay [4] concerns the target T3, Ionotropic glutamate receptor NMDA 1/2D (Rattus norvegicus) (UniProt P35439+Q62645). In words: Inhibition of recombinant rat GluN1/GluN2D NMDA receptor expressed in xenopus laevis oocytes at 30 uM in presence of glycine and L-glutamate by measuring maximum response by two-electrode voltage-clamp method relative to control.
In assay [5] the target is T4, Glutamate NMDA receptor; Grin1/Grin2a (Rattus norvegicus) (UniProt P35439+Q00959). In words: Inhibition of recombinant rat GluN1/GluN2A NMDA receptor expressed in xenopus laevis oocytes in presence of glycine and L-glutamate by measuring maximum response by two-electrode voltage-clamp method relative to control.
The target in assay [6] is T5, Glutamate NMDA receptor; Grin1/Grin2c (Rattus norvegicus) (UniProt P35439+Q00961). The assay can be described thus: Inhibition of recombinant rat GluN1/GluN2C NMDA receptor expressed in xenopus laevis oocytes in presence of glycine and L-glutamate by measuring maximum response by two-electrode voltage-clamp method relative to control.
Assay [7] has as its target T6, Glutamate NMDA receptor; Grin1/Grin2b (Rattus norvegicus) (UniProt P35439+Q00960). The assay can be described thus: Inhibition of recombinant rat GluN1/GluN2B NMDA receptor expressed in xenopus laevis oocytes in presence of glycine and L-glutamate by measuring maximum response by two-electrode voltage-clamp method relative to control.
Assay [8] deals with T7, Ionotropic glutamate receptor NMDA 1/2D (Rattus norvegicus, UniProt P35439+Q62645). In words: Inhibition of recombinant rat GluN1/GluN2D NMDA receptor expressed in xenopus laevis oocytes in presence of glycine and L-glutamate by two-electrode voltage-clamp method.
The target in assay [9] is T4, Glutamate NMDA receptor; Grin1/Grin2a (Rattus norvegicus). The assay can be described thus: Partial agonist activity at recombinant rat GluN1/GluN2A NMDA receptor expressed in xenopus laevis oocytes by measuring maximum response by two-electrode voltage-clamp method relative to glycine. Conditions: filed as partial agonist.
The target of assay [10] is T6, Glutamate NMDA receptor; Grin1/Grin2b (Rattus norvegicus). In words: Agonist activity at recombinant rat GluN1/GluN2B NMDA receptor expressed in xenopus laevis oocytes at 30 uM by two-electrode voltage-clamp method relative to control.
Assay [11] deals with T3, Ionotropic glutamate receptor NMDA 1/2D (Rattus norvegicus). The assay can be described thus: Partial agonist activity at recombinant rat GluN1/GluN2D NMDA receptor expressed in xenopus laevis oocytes by measuring maximum response by two-electrode voltage-clamp method relative to glycine. Conditions: filed as partial agonist.
Assay [12] addresses T2, Glutamate NMDA receptor; Grin1/Grin2c. The assay can be described thus: Agonist activity at recombinant rat GluN1/GluN2C NMDA receptor expressed in xenopus laevis oocytes in presence of L-glutamate by two-electrode voltage-clamp method.
In assay [13] the target is T7, Ionotropic glutamate receptor NMDA 1/2D. In words: Partial agonist activity at recombinant rat GluN1/GluN2D NMDA receptor expressed in xenopus laevis oocytes in presence of L-glutamate by two-electrode voltage-clamp method.
The target in assay [14] is T1, Glutamate NMDA receptor; Grin1/Grin2a. The assay can be described thus: Partial agonist activity at recombinant rat GluN1/GluN2A NMDA receptor expressed in xenopus laevis oocytes in presence of L-glutamate by two-electrode voltage-clamp method.
The target in assay [15] is T5, Glutamate NMDA receptor; Grin1/Grin2c (Rattus norvegicus). In words: Agonist activity at recombinant rat GluN1/GluN2C NMDA receptor expressed in xenopus laevis oocytes by measuring maximum response by two-electrode voltage-clamp method relative to glycine. Conditions: filed as agonist.
Assay [16] addresses Ionotropic glutamate receptor NMDA 1/2C (Homo sapiens) (UniProt Q05586+Q14957). In words: Agonist activity at GluN1/GluN2C (unknown origin) expressed in xenopus laevis oocytes by measuring maximum response by two-electrode voltage-clamp method relative to glycine.
Assay [17] concerns the target T6, Glutamate NMDA receptor; Grin1/Grin2b (Rattus norvegicus). The assay can be described thus: Agonist activity at recombinant rat GluN1/GluN2B NMDA receptor expressed in xenopus laevis oocytes by measuring maximum response by two-electrode voltage-clamp method relative to glycine. Conditions: filed as agonist.

Each structure is given as a SMILES string.

What is called IC50 is the concentration that inhibits the measured activity by half. One may read the EC50 as the concentration at which the effect is half-maximal.

In the case of `CCc1ccccc1-c1ccc(C(=O)NC[C@@H](N)C(=O)O)o1`, the IC50 amounted to 540 nM in [1], 1100 nM in [2], 150 nM in assay [3] and 1300 nM in assay [8]. The Rmax in [4] was determined as 7%; in assay [5], 77%; in [6] it was 65%; in assay [7], 2%.
As for `N[C@H](CNC(=O)c1ccc(-c2ccccc2)s1)C(=O)O`, the Rmax was 69% in assay [9]; 43% in [11]; 20% in [4]; 137% in assay [5]; 395% in [6]; 3% in assay [7]. In addition, the Rmax in [15] was 326%. The Activity in assay [10] was below 5%. The IC50 turned out to be 1900 nM in assay [1], 3900 nM in assay [2] and 2100 nM in [3]. Moreover, the half-maximal effective concentration (EC50) in [12] worked out at 640 nM; in assay [13], 3270 nM; in [14] it was 2280 nM.
For the compound `N[C@H](CNC(=O)c1cc2c(Cl)ccc(Cl)c2[nH]1)C(=O)O`, in [16], the Rmax was determined as 38%.
For the compound `NCC(=O)O`, the Rmax in assay [9], in assay [11], in assay [17] and in [15] was 100% each time.

These data come from ChEMBL document CHEMBL6121048 (J Med Chem, 2025).
